Laboratory results as given in patent publication US20130253022A1 (FOX CHASE CHEMICAL DIVERSITY CENTER, INC., priority 2010, published 2013).
One block for each compound: values may come before it.

Legend:
[1] = tested on: MES-induced seizure spread; assay: Maximal electroshock seizure (MES) test, rat; type: in vivo, rats; conditions: po
Procedure: (§1) Seizure-related assays, Maximal electroshock test: The most definitive assay for anti-seizure activity is the maximal electroshock (MES) test (Swinyard, E. A. Laboratory evaluation of antiepileptic drugs: review of laboratory methods, Epilepsia, 1969, 10, 107-119). […] With both rodent assays, the duration of action is of high importance as well as the potency of the response.
(§2) Methods to measure anticonvulsant activity: All tests were conducted by the Anticonvulsant Screening Program (ASP) of the National Institute of Neurological Disease and Stroke at the National Institutes of Health.
(§3) The Maximal Electroshock Seizure (MES) or Maximal Seizure Pattern Test: The MES is a model for generalized tonic-clonic seizures (Putnam and Merritt. Experimental determination of the anticonvulsant properties of some phenyl derivatives. Science 1937, 85, 113-118). It is highly reproducible with consistent endpoints. The behavioral and electrographic seizures generated in this model are consistent with the human disorder. This model identifies those compounds which prevent seizure spread.
(§4) In the MES test, an electrical stimulus of 0.2 s in duration (50 mA in mice and 150 mA in rat at 60 Hz) is delivered via corneal electrodes primed with an electrolyte solution containing an anesthetic agent. Mice are tested at 30 minutes and 4 hours following doses of 30, 100 and 300 mg/kg of test compound. Test compounds are administered intraperitoneally to the mice. Rats are tested at time intervals between 0.25 and 4 hours following a standard oral dose of 30 mg/kg. Abolition of the hindlimb tonic extensor component indicates the test compound's ability to inhibit MES-induced seizure spread.

Hippocampal Cultures [2] = assay: Neuroprotection from hydrogen peroxide (oxidative stress), propidium iodide assay; type: cell-based; conditions: Rattus norvegicus; 10 μM hydrogen peroxide, hippocampal cultures, 4 hour test period; read-out: NP from Hydrogen Peroxide PI EC50
Excerpt: (§5) Cell cultures: All compounds are screened with dissociated hippocampal cultures derived from embryonic day 18 rats as the primary test system. With this preparation, primary neurons are used to test for toxicity as well as neuroprotection in a highly relevant experimental system to epilepsy. In brief, hippocampal tissue are obtained commercially through Brain Bits (Springfield, Ill.) and cultures prepared as previously described by Brewer (Brewer, G. J. Serum-free B27/neurobasal medium supports differentiated growth of neurons from the striatum, substantia nigra, septum, cerebral cortex, cerebellum and dentate gyms, J. Neurosci. Res. 1995, 42, 674-683). The hippocampal neurons are platted at low density (10,000 cell/well) in a 96-well format and maintained in serum-free medium consisting of Neurobasal Medium supplemented with B27 and GlutaMAX (Gibco). Pre-coated poly-L-lysine coated plates are used because of the preferential adherence and survival of hippocampal neurons on this matrix support.
(§6) Potent neuroprotection is the distinguishing characteristic that separates this program's anticonvulsants from all other commercial drugs for epilepsy. The experimental details and the rationale for the implemented assays are essential in differentiating these compounds from that of others. The central objective of all neuroprotective assays was their relevancy to excitotoxicity and oxidative stress related to epilepsy. Both the amount of glutamate and hydrogen peroxide used in the assays, as well as the time of treatment and duration of the experiment, were designed to be relevant to epilepsy. Further, all time parameters employed in these studies were empirically determined to be within the limits of reversible toxic events, yet using amounts of glutamate and hydrogen peroxide that were relevant to the disease. In regard to glutamate toxicity, a critical feature was the duration of treatment of the hippocampal neurons. The rational for using a short 5 min treatment with glutamate was based on the observation of Randall and Thayer (Randall, R. D.; Thayer, S. A. Glutamate-induced calcium transient triggers calcium overload and neurotoxicity in rat hippocampal neurons, J. Neurosci. 1992, 12, 1882-1895). […] The rationale is that this intense burst of glutamate and resulting calcium overload is relevant to seizures and therefore was important data to capture in the screening assay. The amount of glutamate (30 μM) employed in our screening was based on the basal levels of glutamate observed in microdialysis measurements of hippocampus from epileptogenic patients (Cavus et al. Decreased hippocampal volume on MRI is associated with increased extracellular glutamate in epilepsy patients, Epilepsia, 2008, 49, 1358-1366). In regard to hydrogen peroxide, the amount employed (10 μM) was detected in the hippocampus of rats after kainate-induced status epilepticus (Jarrett et. al., Mitochondrial DNA damage and impaired base excision repair during epileptogenesis, Neurobiol. Dis. 2008, 30, 130-138). To produce neural damage and death with these amounts of glutamate and hydrogen peroxide, the cultures were changed to a medium with significant depletion of antioxidant components in the defined medium supplement B-27 just prior to treatment with the compounds. This was performed to obtain a significant and reproducible toxic signal in the hippocampal neurons and because loss of antioxidant control may be a component of epileptogenesis (Waldbaum and Patel, Mitochondria, oxidative stress and temporal lobe epilepsy, Epilepsy Res. 2010 88, 23-45; Wu et al., Mitochondrial DNA mutation-elicited oxidative stress, oxidative damage, and altered gene expression in cultured cells of patients with MERRF syndrome, Mol. Neurobiol. 2010, 41, 256-266). Neuroprotection studies with hydrogen peroxide were conducted with cultures that were between day 12 and day 18. Studies of neuroprotection glutamate were conducted between day 19 and day 22. […]

[3] = tested on: pentylenetetrazol-induced clonic seizures; assay: Subcutaneous pentylenetetrazol seizure test (scPTZ), rat; type: in vivo, Sprague-Dawley rats; conditions: pentylenetetrazol 70 mg/kg s.c., test compound orally, read-out: Rat PTZ ED50, s.c.
Procedure: Methods to measure anticonvulsant activity: All tests were conducted by the Anticonvulsant Screening Program (ASP) of the National Institute of Neurological Disease and Stroke at the National Institutes of Health. The subcutaneous pentylenetetrazol (metrazol) seizure test (scPTZ). This model primarily identifies compounds that raise seizure threshold. The behavioral seizure produced is not typical of absence epilepsy but clonic in nature. With some minor exceptions, the pharmacological profile of the scPTZ seizure model is consistent with the human condition. The scPTZ test utilizes a dose of pentylenetetrazol (85 mg/kg in Carworth Farms No. 1 mice and 70 mg/kg in Sprague-Dawley rats). This produces clonic seizures lasting for a period of at least five seconds in 97 percent of animals tested. At the anticipated time of testing the convulsant is administered subcutaneously. The test compound is administered intraperitoneally in mice and orally in rats. Animals are observed over a 30 minute period. Absence of clonic spasms in the observed time period indicates a compound's ability to abolish the effect of pentylenetetrazol on seizure threshold (Swinyard E A. Laboratory evaluation of antiepileptic drugs: review of laboratory methods. Epilepsia, 1969, 10, 107-119).

Hippocampal Cultures [4] = assay: Neuroprotection from glutamate excitotoxicity, CFDA (neuronal viability) assay; type: cell-based; conditions: Rattus norvegicus; 30 μM glutamate 5 min, hippocampal cultures, 4 hour test period; read-out: NP from Glutamate CFDA EC50
Excerpt: as §5
as §6, with “compounds.” for “compounds. This was performed to obtain a significant and reproducible toxic signal in the hippocampal neurons and because loss of antioxidant control may be a component of epileptogenesis (Waldbaum and Patel, Mitochondria, oxidative stress and temporal lobe epilepsy, Epilepsy Res. 2010 88, 23-45; Wu et al., Mitochondrial DNA mutation-elicited oxidative stress, oxidative damage, and altered gene expression in cultured cells of patients with MERRF syndrome, Mol. Neurobiol. 2010, 41, 256-266). Neuroprotection studies with hydrogen peroxide were conducted with cultures that were between day 12 and day 18. Studies of neuroprotection glutamate were conducted between day 19 and day 22.”

[5] = tested on: MES-induced seizure spread; assay: Maximal electroshock seizure (MES) test, mouse; type: in vivo, mice; conditions: for Duration of action MES: Mouse Maximal Electroshock (MES) test at 100 mg/kg, i.p.; for ED50: ip, mouse
Procedure: as §1, §2, §3, §4

EC50 (Hippocampal Cultures [2]): 1 nM
SMILES: NS(=O)(=O)NCC(F)(F)c1ccccc1F [Example 1, 2,2-Difluoro-2-(2-fluorophenyl)-ethyl-1-sulfamide]
ED50 [1]: 30 mg/kg
ED50 [3]: 107 mg/kg
EC50 (Hippocampal Cultures [4]): 1 nM
Duration of action MES [5]: 4 h
ED50 [5]: 50 mg/kg

EC50 (Hippocampal Cultures [2]): 0.1 nM
SMILES: NS(=O)(=O)NCC(F)(F)c1ccccc1Cl [Example 2, 2,2-Difluoro-2-(2-chlorophenyl)-ethyl-1-sulfamide]
ED50 [1]: 30 mg/kg
ED50 [3]: 48 mg/kg
EC50 (Hippocampal Cultures [4]): 10 nM
Duration of action MES [5]: 4 h
ED50 [5]: 54 mg/kg
